The record followed here is BindingDB's records for patent US20260001833 (The Cleveland Clinic Foundation, 2026).

In this experiment the target is T1, Choline trimethylamine-lyase (UniProt A0AAJ0YC41).
T1 sequence (A0AAJ0YC41 whole entry): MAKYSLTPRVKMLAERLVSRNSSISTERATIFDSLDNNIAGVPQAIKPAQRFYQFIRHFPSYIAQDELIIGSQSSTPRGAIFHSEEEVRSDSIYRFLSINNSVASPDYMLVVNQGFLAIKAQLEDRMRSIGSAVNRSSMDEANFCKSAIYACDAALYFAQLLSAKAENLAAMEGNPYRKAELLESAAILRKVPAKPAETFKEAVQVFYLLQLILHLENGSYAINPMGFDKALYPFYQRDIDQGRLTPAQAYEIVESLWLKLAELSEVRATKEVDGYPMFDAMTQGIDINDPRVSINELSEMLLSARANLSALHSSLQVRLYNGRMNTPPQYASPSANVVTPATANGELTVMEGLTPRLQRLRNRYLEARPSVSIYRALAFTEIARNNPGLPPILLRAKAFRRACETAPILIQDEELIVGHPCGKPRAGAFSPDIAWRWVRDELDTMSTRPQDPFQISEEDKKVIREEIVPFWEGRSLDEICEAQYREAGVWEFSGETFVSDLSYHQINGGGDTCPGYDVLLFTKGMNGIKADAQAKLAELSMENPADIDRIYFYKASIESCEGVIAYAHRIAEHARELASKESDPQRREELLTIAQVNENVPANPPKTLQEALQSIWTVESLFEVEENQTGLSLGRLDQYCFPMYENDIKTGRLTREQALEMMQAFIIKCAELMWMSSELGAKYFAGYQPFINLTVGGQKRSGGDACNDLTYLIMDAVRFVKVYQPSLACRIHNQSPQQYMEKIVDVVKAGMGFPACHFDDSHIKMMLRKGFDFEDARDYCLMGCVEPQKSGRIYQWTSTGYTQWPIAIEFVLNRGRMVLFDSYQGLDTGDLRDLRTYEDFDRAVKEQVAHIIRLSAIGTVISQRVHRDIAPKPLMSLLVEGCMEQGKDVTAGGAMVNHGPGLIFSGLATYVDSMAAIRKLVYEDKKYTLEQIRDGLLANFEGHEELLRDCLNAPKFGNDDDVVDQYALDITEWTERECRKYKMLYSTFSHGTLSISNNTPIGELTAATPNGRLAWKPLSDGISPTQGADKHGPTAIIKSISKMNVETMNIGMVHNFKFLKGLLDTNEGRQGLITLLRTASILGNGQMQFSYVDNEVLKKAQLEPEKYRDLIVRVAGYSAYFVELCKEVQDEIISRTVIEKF
Kind of experiment: In Vitro TMA Inhibition. As for the experimental part:
Choline TMA lyase enzymatic activity assays were conducted to measure the conversion of isotope-labeled d9-choline to d9-TMA. Upon thawing an aliquot of frozen clarified lysate on ice and gentle mixing, clarified lysate was diluted to 5 mg/mL in lysis buffer and the necessary co-factors were added (final concentration: 1 mM SAM, 10 mM NaDT, and 2 mM NADH). Potential inhibitor compounds (typically dissolved in H2O) were serially diluted (10-fold) and added to individual reaction mixtures (done in triplicate). The mixture was then allowed to incubate for at least 15 minutes at 22° C. before the addition of substrate (300 μM final d9-choline) to initiate the reaction, which was carried out for 2 hours at room temperature (22° C.) in the dark in gas tight sealed reaction vials. The reactions were quenched with the addition of 200 μL of 1 M NaOH and 0.5 μM of the internal standard ([13C3 15N1]TMA), vortexing and placement in ice. d9-TMA production was quantified using mass spectrometry by measuring the peak area ratio of the precursor to product ion transition of d9-TMA (m/z 69→49) to the internal standard [13C3 15N1]TMA (m/z 64→47).

With `C[N+](C)(CF)CCOC(=O)c1ccc(O)cc1` [US20260001833, Compound 3], the IC50 turned out to be 3.6 µM.
